Where a SMILES comes first, the peptide text is derived from it. Bridges are numbered along the chain shown (N, C = ends). [ ]: non-standard residue; d: D form. The star is where a group is joined. hPhe(3-Cl-4-CF3) = N[C@@H](CCc1ccc(C(F)(F)F)c(Cl)c1)C(=O)O; NPrPhe(4-CF3) = CCCN[C@@H](Cc1ccc(C(F)(F)F)cc1)C(=O)O; Pro(4-spirocPr) = O=C(O)[C@@H]1CC2(CC2)CN1; NMeGly(cPent) = CN[C@H](C(=O)O)C1CCCC1; Pro(4,4-F2) = O=C(O)[C@@H]1CC(F)(F)CN1; NMeD = CN[C@@H](CC(=O)O)C(=O)O; NMeL = CN[C@@H](CC(C)C)C(=O)O; Morpholide = C1CN(*)CCO1; Ac5c = NC1(C(=O)O)CCCC1; Aze = O=C(O)[C@@H]1CCN1; Ac4c = NC1(C(=O)O)CCC1; NEtG = CCNCC(=O)O; Sar = CNCC(=O)O
Legend:
[1] = target: GDP-bound NRAS wild-type protein (Homo sapiens, UniProt P01111); assay: Binding to NRAS by surface plasmon resonance (SPR), Single Cycle Kinetics
Chain of GDP-bound NRAS wild-type protein (P01111 whole entry): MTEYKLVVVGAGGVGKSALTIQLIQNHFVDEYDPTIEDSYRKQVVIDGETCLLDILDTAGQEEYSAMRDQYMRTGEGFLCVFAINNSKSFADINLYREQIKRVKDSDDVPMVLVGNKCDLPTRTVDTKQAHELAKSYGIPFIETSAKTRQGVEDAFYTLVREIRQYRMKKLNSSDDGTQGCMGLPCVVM

[2] = target: GDP-bound HRAS wild-type protein (Homo sapiens, UniProt P01112); assay: Binding to HRAS by surface plasmon resonance (SPR), Single Cycle Kinetics
Chain of GDP-bound HRAS wild-type protein (P01112 whole entry): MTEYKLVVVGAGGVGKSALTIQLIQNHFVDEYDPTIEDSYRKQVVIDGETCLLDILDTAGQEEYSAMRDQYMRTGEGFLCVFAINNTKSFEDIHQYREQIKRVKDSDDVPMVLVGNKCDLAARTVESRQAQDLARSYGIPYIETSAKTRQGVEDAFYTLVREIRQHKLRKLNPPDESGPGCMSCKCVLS

[3] = KD ratio, GDP-bound NRAS wild-type vs GDP-bound KRAS wild-type, SPR
[4] = KD ratio, GDP-bound HRAS wild-type vs GDP-bound KRAS wild-type, SPR

CC[C@H](C)[C@@H]1NC(=O)[C@H](CC(C)C)N(C)C(=O)C[C@@H](C(=O)N2CCOCC2)N(C)C(=O)[C@H](C2CCCC2)N(C)C(=O)C2(CCCC2)NC(=O)[C@@H]2CCCN2C(=O)[C@H](CCc2cc(F)c(C(F)(F)F)c(F)c2)NC(=O)CN(C)C(=O)[C@H](Cc2ccc(C(F)(F)F)cc2)N2CCCCC[C@@H](C2=O)N(C)C(=O)[C@@H]2CCN2C1=O [PP0484]
NRAS/KRAS (ratio of KD value with respect to GDP-bound NRAS wild-type protein to KD value with respect to KRAS) ([1]; SPR): A (a compound having 10 or more and less than 20 is denoted as A) | HRAS/KRAS (ratio of KD value with respect to GDP-bound HRAS wild-type protein to KD value with respect to KRAS) ([2]; SPR): B (a compound having 3 or more and less than 10 is denoted as B)

CCO[C@@H]1C[C@H]2C(=O)NC3(CCC3)C(=O)N(C)[C@@H](C3CCCC3)C(=O)N(C)[C@H](C(=O)N(C)C)CC(=O)N(C)[C@@H](CC)C(=O)N[C@@H]([C@@H](C)CC)C(=O)N(C)CC(=O)N(C)[C@H]3C[C@@H](C)CCN(C3=O)[C@@H](Cc3ccc(C(F)(F)F)cc3)C(=O)N(C)CC(=O)N[C@@H](CCc3cc(F)c(C(F)(F)F)c(F)c3)C(=O)N2C1 [PP1020]
NRAS/KRAS (ratio of KD value with respect to NRAS to KD value with respect to KRAS) [1, 3]: C (A compound having a KD ratio of 0.1 or more and less than 3 is denoted as C) | HRAS/KRAS (ratio of KD value with respect to HRAS to KD value with respect to KRAS) [2, 4]: B (a compound having 3 or more and less than 10 is denoted as B)

CCC(CC)[C@H]1C(=O)N(C)[C@H](C(=O)N(C)C)CC(=O)N(C)[C@@H](COC)C(=O)N[C@@H]([C@@H](C)CC)C(=O)N(C2CC2)CC(=O)N(C)[C@H]2C/C=C\CCN(C2=O)[C@@H](Cc2ccc(C)cc2)C(=O)N(C)CC(=O)N[C@@H](CCc2cc(F)c(C(F)(F)F)c(F)c2)C(=O)N2C[C@H](OC3CCCC3)C[C@H]2C(=O)NC2(CC(C)(C)C2)C(=O)N1C [PP2619]
NRAS/KRAS (ratio of KD value with respect to GDP-bound NRAS wild-type protein to KD value with respect to KRAS) ([1]; class symbols): AA (a compound having 20 or more is denoted as AA) | HRAS/KRAS (ratio of KD value with respect to GDP-bound HRAS wild-type protein to KD value with respect to KRAS) ([2]; class symbols): A (a compound having 10 or more and less than 20 is denoted as A)

CCO[C@@H]1C[C@H]2C(=O)NC3(CCC3)C(=O)N(C)[C@@H](C3CCCC3)C(=O)N(C)[C@H](C(=O)N3CCOCC3)CC(=O)N(C)[C@@H](CC(C)C)C(=O)N[C@@H]([C@@H](C)CC)C(=O)N(C)CC(=O)N(C)[C@H]3CC=C(C)CN(C3=O)[C@@H](Cc3ccc(C(F)(F)F)cc3)C(=O)N(C)CC(=O)N[C@@H](CCc3cc(F)c(C(F)(F)F)c(F)c3)C(=O)N2C1 [PP0826]
NRAS/KRAS (ratio of KD value with respect to NRAS to KD value with respect to KRAS) [1, 3]: C (A compound having a KD ratio of 0.1 or more and less than 3 is denoted as C) | HRAS/KRAS (ratio of KD value with respect to HRAS to KD value with respect to KRAS) [2, 4]: B (a compound having 3 or more and less than 10 is denoted as B)

CC[C@H](C)[C@@H]1NC(=O)[C@H](CC(C)C)N(C)C(=O)C[C@@H](C(=O)N2CCOCC2)N(C)C(=O)[C@H](C2CCCC2)N(C)C(=O)C2(CCOCC2)NC(=O)[C@@H]2CCCN2C(=O)[C@H](CCc2cc(F)c(C(F)(F)F)c(F)c2)NC(=O)CN(C)C(=O)[C@H](Cc2ccc(C(F)(F)F)cc2)N2CCCCC[C@@H](C2=O)N(C)C(=O)CN(C)C1=O [PP0502]
NRAS/KRAS (ratio of KD value with respect to GDP-bound NRAS wild-type protein to KD value with respect to KRAS) ([1]; SPR): A (a compound having 10 or more and less than 20 is denoted as A) | HRAS/KRAS (ratio of KD value with respect to GDP-bound HRAS wild-type protein to KD value with respect to KRAS) ([2]; SPR): B (a compound having 3 or more and less than 10 is denoted as B)

CCO[C@@H]1C[C@H]2C(=O)NC3(CCC3)C(=O)N(C)[C@@H](C3CCCC3)C(=O)N(C)[C@H](C(=O)N3CCOCC3)CC(=O)N(C)[C@@H](COC)C(=O)N[C@@H]([C@@H](C)CC)C(=O)N(C)CC(=O)N(C)[C@H]3CCCCCN(C3=O)[C@@H](Cc3ccc(C(F)(F)F)cc3)C(=O)N(C)CC(=O)N[C@@H](CCc3ccc(C)cc3)C(=O)N2C1 [PP0850]
NRAS/KRAS (ratio of KD value with respect to NRAS to KD value with respect to KRAS) [1, 3]: B (a compound having 3 or more and less than 10 is denoted as B) | HRAS/KRAS (ratio of KD value with respect to HRAS to KD value with respect to KRAS) [2, 4]: B (a compound having 3 or more and less than 10 is denoted as B)

CCCN1C(=O)CN(C)C(=O)[C@@H]2CCN2C(=O)[C@H]([C@@H](C)CC)NC(=O)[C@H](CC(C)C)N(C)C(=O)C[C@@H](C(=O)N(C)C)NC(=O)[C@H](C2CCCC2)N(C)C(=O)C2(CCC2)NC(=O)[C@@H]2CC(F)(F)CN2C(=O)[C@H](CCc2ccc(C(F)(F)F)c(Cl)c2)NC(=O)CN(C)C(=O)[C@@H]1Cc1ccc(C(F)(F)F)cc1 [PP0376] ([NMeL]I[Aze][Sar][NPrPhe(4-CF3)][Sar][hPhe(3-Cl-4-CF3)][Pro(4,4-F2)][Ac4c][NMeGly(cPent)]D-NMe2; lactam N-11)
NRAS/KRAS (ratio of KD for GDP-bound NRAS wild-type to KD for KRAS) ([1]; SPR): B (a compound having 3 or more and less than 10 is denoted as B) | HRAS/KRAS (ratio of KD for GDP-bound HRAS wild-type to KD for KRAS) ([2]; SPR): B (a compound having 3 or more and less than 10 is denoted as B)

CCCN1C(=O)CN(C)C(=O)CNC(=O)[C@H]([C@@H](C)CC)NC(=O)[C@H](CC(C)C)N(C)C(=O)C[C@@H](C(=O)N2CCOCC2)N(C)C(=O)[C@H](C2CCCC2)N(C)C(=O)C2(CCCC2)NC(=O)[C@@H]2CCCN2C(=O)[C@H](CCc2ccc(C(F)(F)F)c(Cl)c2)NC(=O)CN(CC)C(=O)[C@@H]1Cc1ccc(C(F)(F)F)cc1 [PP1969] ([NMeL]IG[Sar][NPrPhe(4-CF3)][NEtG][hPhe(3-Cl-4-CF3)]P[Ac5c][NMeGly(cPent)][NMeD]-Morpholide; lactam N-11)
NRAS/KRAS (ratio of KD value for NRAS to KD value for KRAS) [1, 3]: B (a compound having 3 or more and less than 10 is denoted as B) | HRAS/KRAS (ratio of KD value for HRAS to KD value for KRAS) [2, 4]: C (A compound having a KD ratio of 0.1 or more and less than 3 is denoted as C)

CCO[C@@H]1C[C@H]2C(=O)NC3(CCC3)C(=O)N(C)[C@@H](C3CCCC3)C(=O)N(C)[C@H](C(=O)N3CCOCC3)CC(=O)N(C)[C@@H](CCOC)C(=O)N[C@@H]([C@@H](C)CC)C(=O)N(C)CC(=O)N(C)[C@H]3CCCCCN(C3=O)[C@@H](Cc3ccc(C(F)(F)F)cc3)C(=O)N(C)CC(=O)N[C@@H](CCc3cc(F)c(C(F)(F)F)c(F)c3)C(=O)N2C1 [PP0690]
NRAS/KRAS (ratio of KD value with respect to GDP-bound NRAS wild-type protein to KD value with respect to KRAS) ([1]; SPR): B (a compound having 3 or more and less than 10 is denoted as B) | HRAS/KRAS (ratio of KD value with respect to GDP-bound HRAS wild-type protein to KD value with respect to KRAS) ([2]; SPR): B (a compound having 3 or more and less than 10 is denoted as B)

CCCN1C(=O)CN(C)C(=O)CN(C)C(=O)[C@H]([C@@H](C)CC)NC(=O)[C@H](CC(C)C)N(C)C(=O)C[C@@H](C(=O)N2CCOCC2)N(C)C(=O)[C@H](C2CCCC2)N(C)C(=O)C2(CCCC2)NC(=O)[C@@H]2CCCN2C(=O)[C@H](CCc2ccc(C(F)(F)F)c(Cl)c2)NC(=O)CN(C)C(=O)[C@@H]1Cc1ccc(C(F)(F)F)cc1 [PP0060] ([NMeL]I[Sar][Sar][NPrPhe(4-CF3)][Sar][hPhe(3-Cl-4-CF3)]P[Ac5c][NMeGly(cPent)][NMeD]-Morpholide; lactam N-11)
NRAS/KRAS (ratio of KD for GDP-bound NRAS wild-type to KD for KRAS) ([1]; SPR): B (a compound having 3 or more and less than 10 is denoted as B) | HRAS/KRAS (ratio of KD for GDP-bound HRAS wild-type to KD for KRAS) ([2]; SPR): B (a compound having 3 or more and less than 10 is denoted as B)

CCO[C@@H]1C[C@H]2C(=O)NC3(CCC3)C(=O)N(C)[C@@H](C3CCCC3)C(=O)N(CC)[C@H](C(=O)N(C)C)CC(=O)N(C)[C@@H](CC)C(=O)N[C@@H]([C@@H](C)CC)C(=O)N(C)CC(=O)N(C)[C@H]3CCCCCN(C3=O)[C@@H](Cc3ccc(C(F)(F)F)cc3)C(=O)N(C)CC(=O)N[C@@H](CCc3cc(F)c(C(F)(F)F)c(F)c3)C(=O)N2C1 [PP0633]
NRAS/KRAS (ratio of KD value with respect to GDP-bound NRAS wild-type protein to KD value with respect to KRAS) ([1]; SPR): B (a compound having 3 or more and less than 10 is denoted as B) | HRAS/KRAS (ratio of KD value with respect to GDP-bound HRAS wild-type protein to KD value with respect to KRAS) ([2]; SPR): B (a compound having 3 or more and less than 10 is denoted as B)

CCCN1C(=O)CN(C)C(=O)CN(C)C(=O)[C@H]([C@@H](C)CC)NC(=O)[C@H](CC(C)C)N(C)C(=O)C[C@@H](C(=O)N2CCOCC2)N(C)C(=O)[C@H](C2CCCC2)N(C)C(=O)C2(CCCC2)NC(=O)[C@@H]2CC3(CC3)CN2C(=O)[C@H](CCc2ccc(C(F)(F)F)c(Cl)c2)NC(=O)CN(C)C(=O)[C@@H]1Cc1ccc(C(F)(F)F)cc1 [PP0261] ([NMeL]I[Sar][Sar][NPrPhe(4-CF3)][Sar][hPhe(3-Cl-4-CF3)][Pro(4-spirocPr)][Ac5c][NMeGly(cPent)][NMeD]-Morpholide; lactam N-11)
NRAS/KRAS (ratio of KD for GDP-bound NRAS wild-type to KD for KRAS) ([1]; SPR): B (a compound having 3 or more and less than 10 is denoted as B) | HRAS/KRAS (ratio of KD for GDP-bound HRAS wild-type to KD for KRAS) ([2]; SPR): C (A compound having a KD ratio of 0.1 or more and less than 3 is denoted as C)

CC[C@H](C)[C@@H]1NC(=O)[C@H](CC(C)C)N(C)C(=O)C[C@@H](C(=O)N2CCOCC2)N(C)C(=O)[C@H](CC(F)(F)F)N(C)C(=O)C2(CCCC2)NC(=O)[C@@H]2CCCN2C(=O)[C@H](CCc2cc(F)c(C(F)(F)F)c(F)c2)NC(=O)CN(C)C(=O)[C@H](Cc2ccc(C(F)(F)F)cc2)N2CCCCC[C@@H](C2=O)N(C)C(=O)CN(C)C1=O [PP0506]
NRAS/KRAS (ratio of KD value with respect to GDP-bound NRAS wild-type protein to KD value with respect to KRAS) ([1]; SPR): B (a compound having 3 or more and less than 10 is denoted as B) | HRAS/KRAS (ratio of KD value with respect to GDP-bound HRAS wild-type protein to KD value with respect to KRAS) ([2]; SPR): B (a compound having 3 or more and less than 10 is denoted as B)

C#CC[C@H]1C(=O)N[C@@H]([C@@H](C)CC)C(=O)N(C)CC(=O)N(C)[C@H]2C/C=C\CCN(C2=O)[C@@H](Cc2ccc(C(F)(F)F)cc2)C(=O)N(C)CC(=O)N[C@@H](CCc2cc(F)c(C(F)(F)F)c(F)c2)C(=O)N2C[C@@H](C)C[C@H]2C(=O)NC2(CC(C)(C)C2)C(=O)N(C)[C@@H](C2CCCC2)C(=O)N(C)[C@H](C(=O)N(C)CC)CC(=O)N1C [PP2075]
NRAS/KRAS (ratio of KD value with respect to NRAS to KD value with respect to KRAS) ([1]; SPR, GDP-bound NRAS wild-type vs GDP-bound KRAS wild-type): A (a compound having 10 or more and less than 20 is denoted as A) | HRAS/KRAS (ratio of KD value with respect to HRAS to KD value with respect to KRAS) ([2]; SPR, GDP-bound HRAS wild-type vs GDP-bound KRAS wild-type): A (a compound having 10 or more and less than 20 is denoted as A)
